Reference: patent US12247032B2, “Substituted pyrazolo[1,5-a]pyrimidines as inhibitors of JAK kinases” (Genentech, Inc., priority 2019, dated 2025)

Experiments:
[1] = target: T1, Recombinant human JAK2 kinase domain protein (Residues 812-1132) (Homo sapiens, UniProt O60674); test: JAK2 biochemical assay (microfluidic mobility shift, peptide phosphorylation); details: 25 μM ATP, 0.2 nM total JAK2; Ki calculated from Ki app (tight-binding, competitive); read-out: Biochem JAK2 Ki
T1 construct: human JAK2 kinase domain protein (Residues 812-1132); made in house; host or cells: insect cells
Procedure, shortened: (§1)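 Insect-cell-expressed human JAK1 (1 nM, residues 854-1154) or JAK2 (0.2 nM, residues 812-1132) phosphorylating 1.5 μM 5-FAM peptide Y-1B with 25 μM ATP, pH 7.2 HEPES, 30 min at 22-23 °C; twelve concentrations up to 1000 nM in duplicate. Mobility-shift % conversion fitted to tight-binding quadratic for Ki^app.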

[2] = test system: JAK1 (IL-13-stimulated STAT6 phosphorylation in BEAS-2B cells); test: P-STAT6 BEAS-2B+IL-13 cell assay; assay type: cell-based, human; details: Homo sapiens, BEAS-2B, 1 h, 1 hour compound, IL-13 15 minutes, IC50 by four-parameter fit, read-out: Cellular JAK1 PSTAT6 BEAS2B + IL13
Procedure, shortened: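 BEAS-2B human bronchial epithelial cells preincubated 1 h at 37 °C with compound, then stimulated with human recombinant IL-13 for 15 min. Phospho-STAT6 (Tyr641) in lysates measured by MSD electrochemiluminescence immunoassay; IC50 from a four-parameter logistic fit of percent of control.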

[3] = target: T2, recombinant human JAK1 kinase domain protein (Residues 854-1154) (Homo sapiens, UniProt P23458); test: JAK1 biochemical assay (microfluidic mobility shift, peptide phosphorylation); details: 25 μM ATP, 1 nM total JAK1; Ki calculated from Ki app (tight-binding, competitive); read-out: Biochem JAK1 Ki
T2 construct: human JAK1 kinase domain protein (Residues 854-1154); purchased Proteros Biostructures GmbH (Martinsried, Germany); host or cells: insect cells
Procedure, shortened: as §1

T2 sequence (P23458 854-1154): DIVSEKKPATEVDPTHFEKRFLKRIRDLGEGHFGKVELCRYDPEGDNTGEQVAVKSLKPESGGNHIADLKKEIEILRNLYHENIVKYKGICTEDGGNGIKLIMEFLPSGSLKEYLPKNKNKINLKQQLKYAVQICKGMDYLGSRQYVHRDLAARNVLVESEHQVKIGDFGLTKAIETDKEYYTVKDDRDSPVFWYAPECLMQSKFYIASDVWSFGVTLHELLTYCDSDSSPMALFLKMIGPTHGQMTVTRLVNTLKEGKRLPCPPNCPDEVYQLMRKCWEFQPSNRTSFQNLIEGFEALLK
T1 sequence (O60674 812-1132): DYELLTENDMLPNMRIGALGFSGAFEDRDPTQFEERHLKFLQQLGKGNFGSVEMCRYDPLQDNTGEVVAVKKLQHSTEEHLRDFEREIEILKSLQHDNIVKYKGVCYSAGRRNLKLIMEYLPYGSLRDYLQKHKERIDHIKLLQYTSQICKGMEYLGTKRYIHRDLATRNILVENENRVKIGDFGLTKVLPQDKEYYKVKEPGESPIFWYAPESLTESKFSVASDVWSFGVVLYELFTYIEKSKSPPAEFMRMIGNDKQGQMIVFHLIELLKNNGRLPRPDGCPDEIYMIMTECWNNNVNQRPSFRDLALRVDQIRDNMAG

| Ki [1] | Ki [3] | Structure (SMILES) | IC50 [2] |
| --- | --- | --- | --- |
| 0.39 nM | 0.51 nM | CN1CCC(n2nnnc2Cn2cc(NC(=O)c3cnn4cccnc34)c(-c3cc(OC(F)F)ccc3OC(F)F)n2)C1 (stereo not drawn) [Example 26, N-[3-[2,5-bis(difluoromethoxy)phenyl]-1-[[1-(1-methylpyrrolidin-3-yl)tetrazol-5-yl]methyl]pyrazol-4-yl]pyrazolo[1,5-a]pyrimidine-3-carboxamide] | 16 nM |
| 0.38 nM | 0.35 nM | O=C(Nc1cn(Cc2nnn(C3CCNC3)n2)nc1-c1cc(OC(F)F)ccc1OC(F)F)c1cnn2cccnc12 (single isomer, unassigned) [Example 27, N-[3-[2,5-bis(difluoromethoxy)phenyl]-1-[(2-pyrrolidin-3-yltetrazol-5-yl)methyl]pyrazol-4-yl]pyrazolo[1,5-a]pyrimidine-3-carboxamide] | 12 nM |
| 0.18 nM | 0.21 nM | O=C(Nc1cn(Cc2nnnn2C2CNC2)nc1-c1cc(OC(F)F)ccc1OC(F)F)c1cnn2cccnc12 [Example 12, N-[1-[[1-(azetidin-3-yl)tetrazol-5-yl]methyl]-3-[2,5-bis(difluoromethoxy)phenyl]pyrazol-4-yl]pyrazolo[1,5-a]pyrimidine-3-carboxamide] | 31 nM |
| 0.41 nM | 0.44 nM | CN1CC(N2CC(n3nnc(Cn4cc(NC(=O)c5cnn6cccnc56)c(-c5cc(OC(F)F)ccc5OC(F)F)n4)n3)C2)C1 [Example 78, N-[3-[2,5-bis(difluoromethoxy)phenyl]-1-[[2-[1-(1-methylazetidin-3-yl)azetidin-3-yl]tetrazol-5-yl]methyl]pyrazol-4-yl]pyrazolo[1,5-a]pyrimidine-3-carboxamide; formic acid] | 40 nM |
| 0.44 nM | 0.48 nM | CN1CCC(N2CC(n3nnc(Cn4cc(NC(=O)c5cnn6cccnc56)c(-c5cc(OC(F)F)ccc5OC(F)F)n4)n3)C2)CC1 [Example 38, N-[3-[2,5-bis(difluoromethoxy)phenyl]-1-[[2-[1-(1-methyl-4-piperidyl)azetidin-3-yl]tetrazol-5-yl]methyl]pyrazol-4-yl]pyrazolo[1,5-a]pyrimidine-3-carboxamide] | 18 nM |
| 0.36 nM | 0.48 nM | CN(C)CCN1CC(n2nnc(Cn3cc(NC(=O)c4cnn5cccnc45)c(-c4cc(Cl)ccc4OC(F)F)n3)n2)C1 [Example 37, N-[3-[5-chloro-2-(difluoromethoxy)phenyl]-1-[[2-[1-[2-(dimethylamino)ethyl]azetidin-3-yl]tetrazol-5-yl]methyl]pyrazol-4-yl]pyrazolo[1,5-a]pyrimidine-3-carboxamide] | 16 nM |
| 0.24 nM | 0.33 nM | CN1CC(n2nnc(Cn3cc(NC(=O)c4cnn5cccnc45)c(-c4cc(OC(F)F)ccc4OC(F)F)n3)n2)C1 [Example 10, N-[3-[2,5-bis(difluoromethoxy)phenyl]-1-[[2-(1-methylazetidin-3-yl)tetrazol-5-yl]methyl]pyrazol-4-yl]pyrazolo[1,5-a]pyrimidine-3-carboxamide] | 17 nM |
| 0.24 nM | 0.42 nM | CN1CC(n2nnc(Cn3cc(NC(=O)c4cnn5cccnc45)c(-c4cc(C5CC5)ccc4OC(F)F)n3)n2)C1 [Example 23, N-[3-[5-cyclopropyl-2-(difluoromethoxy)phenyl]-1-[[2-(1-methylazetidin-3-yl)tetrazol-5-yl]methyl]pyrazol-4-yl]pyrazolo[1,5-a]pyrimidine-3-carboxamide] | 17 nM |
| 0.17 nM | 0.42 nM | CN1CC(n2nnc(Cn3cc(NC(=O)c4cnn5cccnc45)c(-c4cc(Cl)ccc4OC(F)F)n3)n2)C1 [Example 7, N-[3-[5-chloro-2-(difluoromethoxy)phenyl]-1-[[2-(1-methylazetidin-3-yl)tetrazol-5-yl]methyl]pyrazol-4-yl]pyrazolo[1,5-a]pyrimidine-3-carboxamide] | 9.8 nM |
| 0.27 nM | 0.45 nM | CN(C)CCn1nnc(Cn2cc(NC(=O)c3cnn4cccnc34)c(-c3cc(OC(F)F)ccc3OC(F)F)n2)n1 [Example 16, N-[3-[2,5-bis(difluoromethoxy)phenyl]-1-[[2-[2-(dimethylamino)ethyl]tetrazol-5-yl]methyl]pyrazol-4-yl]pyrazolo[1,5-a]pyrimidine-3-carboxamide] | 18 nM |
